# Test results taken from publication PMC5209244 (Bioorganic & medicinal chemistry, 2016).
# Counter-ions that a name gives are not always drawn.
# Legend:
# 5-HT2CR = biological target: T1, 5-HT2CR (Homo sapiens, UniProt P28335); assay: NIMH-PDSP radioligand binding, 5-HT2C receptor
# T1 sequence (P28335 33-458): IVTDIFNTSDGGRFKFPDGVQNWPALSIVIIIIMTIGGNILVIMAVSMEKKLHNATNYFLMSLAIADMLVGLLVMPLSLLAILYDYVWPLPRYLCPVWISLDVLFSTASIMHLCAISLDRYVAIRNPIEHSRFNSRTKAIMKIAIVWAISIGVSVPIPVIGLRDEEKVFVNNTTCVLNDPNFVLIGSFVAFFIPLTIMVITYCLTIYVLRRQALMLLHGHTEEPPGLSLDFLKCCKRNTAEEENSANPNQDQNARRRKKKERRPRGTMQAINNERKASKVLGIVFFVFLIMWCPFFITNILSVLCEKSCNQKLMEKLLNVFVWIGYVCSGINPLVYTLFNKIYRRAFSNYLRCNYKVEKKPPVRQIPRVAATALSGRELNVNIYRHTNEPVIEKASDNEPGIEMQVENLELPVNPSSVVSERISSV
# SERT = SERT (Homo sapiens, UniProt P31645); assay: NIMH-PDSP radioligand binding, serotonin transporter
# SERT, sequence (P31645 whole entry): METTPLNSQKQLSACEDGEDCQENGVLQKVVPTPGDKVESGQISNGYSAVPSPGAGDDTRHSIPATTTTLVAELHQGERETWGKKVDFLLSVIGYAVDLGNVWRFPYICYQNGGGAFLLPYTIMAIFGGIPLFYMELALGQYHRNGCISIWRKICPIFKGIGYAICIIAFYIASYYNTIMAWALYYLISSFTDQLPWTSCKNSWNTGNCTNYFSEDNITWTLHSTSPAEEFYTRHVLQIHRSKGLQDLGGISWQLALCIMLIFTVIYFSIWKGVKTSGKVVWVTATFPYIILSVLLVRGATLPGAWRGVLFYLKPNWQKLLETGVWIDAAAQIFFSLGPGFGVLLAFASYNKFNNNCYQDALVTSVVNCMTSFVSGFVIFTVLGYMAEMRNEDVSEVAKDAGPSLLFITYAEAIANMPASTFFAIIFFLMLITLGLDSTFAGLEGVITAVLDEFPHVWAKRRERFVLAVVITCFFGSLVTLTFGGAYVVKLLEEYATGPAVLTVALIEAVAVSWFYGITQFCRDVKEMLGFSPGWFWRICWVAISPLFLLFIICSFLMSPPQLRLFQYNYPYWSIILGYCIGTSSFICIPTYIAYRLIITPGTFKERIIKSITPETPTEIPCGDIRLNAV
# 5-HT2AR = 5-HT2AR (Homo sapiens, UniProt P28223); assay: NIMH-PDSP radioligand binding, 5-HT2A receptor
# 5-HT2AR, sequence (P28223 whole entry): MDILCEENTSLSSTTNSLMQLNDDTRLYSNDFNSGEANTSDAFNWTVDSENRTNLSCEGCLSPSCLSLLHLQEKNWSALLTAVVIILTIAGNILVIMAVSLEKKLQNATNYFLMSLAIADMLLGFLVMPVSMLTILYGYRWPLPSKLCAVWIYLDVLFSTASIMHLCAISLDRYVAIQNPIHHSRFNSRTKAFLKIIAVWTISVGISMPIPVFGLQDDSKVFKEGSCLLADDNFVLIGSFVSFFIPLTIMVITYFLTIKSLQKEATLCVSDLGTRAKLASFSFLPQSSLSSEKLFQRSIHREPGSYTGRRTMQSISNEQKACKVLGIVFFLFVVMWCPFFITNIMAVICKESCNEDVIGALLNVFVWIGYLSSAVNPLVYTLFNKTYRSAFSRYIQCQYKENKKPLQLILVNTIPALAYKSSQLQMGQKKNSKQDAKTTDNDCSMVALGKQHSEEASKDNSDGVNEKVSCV
# H1R = H1R (Homo sapiens, UniProt P35367); assay: NIMH-PDSP radioligand binding, histamine H1 receptor
# H1R, sequence (P35367 whole entry): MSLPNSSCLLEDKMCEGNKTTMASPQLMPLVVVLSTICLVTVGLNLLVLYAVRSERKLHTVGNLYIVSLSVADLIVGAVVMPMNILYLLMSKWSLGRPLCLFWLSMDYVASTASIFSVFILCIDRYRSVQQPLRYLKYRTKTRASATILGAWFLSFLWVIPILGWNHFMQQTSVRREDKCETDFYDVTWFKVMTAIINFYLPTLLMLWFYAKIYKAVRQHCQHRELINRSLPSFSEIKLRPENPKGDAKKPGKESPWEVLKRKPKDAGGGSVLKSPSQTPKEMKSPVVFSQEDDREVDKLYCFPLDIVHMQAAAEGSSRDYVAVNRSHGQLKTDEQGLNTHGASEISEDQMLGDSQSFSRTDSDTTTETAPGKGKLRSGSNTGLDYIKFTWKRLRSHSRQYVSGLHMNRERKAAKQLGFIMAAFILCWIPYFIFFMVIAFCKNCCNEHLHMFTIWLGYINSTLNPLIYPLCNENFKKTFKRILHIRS
# 5-HT7R = 5-HT7R (Homo sapiens, UniProt P34969); assay: NIMH-PDSP radioligand binding, 5-HT7 receptor
# 5-HT7R, sequence (P34969 whole entry): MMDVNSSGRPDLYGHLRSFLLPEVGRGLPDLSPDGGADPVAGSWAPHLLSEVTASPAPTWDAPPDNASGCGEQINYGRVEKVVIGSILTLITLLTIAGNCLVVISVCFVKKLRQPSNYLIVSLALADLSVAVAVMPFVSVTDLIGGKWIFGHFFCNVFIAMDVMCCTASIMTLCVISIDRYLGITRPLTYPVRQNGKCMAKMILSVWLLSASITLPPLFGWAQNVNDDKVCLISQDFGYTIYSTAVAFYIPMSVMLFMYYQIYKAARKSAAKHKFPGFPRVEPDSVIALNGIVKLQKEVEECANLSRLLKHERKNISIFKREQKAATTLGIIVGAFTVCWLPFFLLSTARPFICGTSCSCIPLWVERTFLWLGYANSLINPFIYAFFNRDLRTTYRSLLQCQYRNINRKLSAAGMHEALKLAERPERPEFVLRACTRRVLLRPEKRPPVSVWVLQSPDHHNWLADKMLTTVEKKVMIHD
# 5-HT1AR = 5-HT1AR (Homo sapiens, UniProt P08908); assay: NIMH-PDSP radioligand binding, 5-HT1A receptor
# 5-HT1AR, sequence (P08908 whole entry): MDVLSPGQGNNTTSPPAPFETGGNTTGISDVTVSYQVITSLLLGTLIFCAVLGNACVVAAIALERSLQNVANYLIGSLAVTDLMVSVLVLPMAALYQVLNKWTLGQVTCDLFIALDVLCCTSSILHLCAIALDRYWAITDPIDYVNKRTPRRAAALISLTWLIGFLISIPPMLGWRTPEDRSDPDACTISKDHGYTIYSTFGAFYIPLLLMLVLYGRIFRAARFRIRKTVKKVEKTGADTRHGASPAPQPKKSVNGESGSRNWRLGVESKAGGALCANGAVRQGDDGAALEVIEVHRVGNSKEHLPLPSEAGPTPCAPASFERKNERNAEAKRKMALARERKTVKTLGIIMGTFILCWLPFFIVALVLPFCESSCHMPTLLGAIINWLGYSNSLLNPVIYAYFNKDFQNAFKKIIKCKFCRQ
Structure (SMILES),Ki 5HT2CR (5-HT2CR),Ki SERT (SERT),SERT binding affinity (in words) (SERT),Ki 5-HT2A (5-HT2AR),also measured
"O=C1NCN(c2ccccc2)C12CCN(CCCCc1nc3ccccc3s1)CC2 [Compound 7, 8-(4-(benzo[d]thiazol-2-yl)butyl)-1-phenyl-1,3,8-triazaspiro[4.5]decan-4-one]",MTA,MTA,–,–,–
O=C(CCCCN1CCC2(CC1)C(=O)NCN2c1ccccc1)c1nc2ccccc2s1 [Compound 9],MTA,–,–,–,–
"O=C1NCN(c2ccccc2)C12CCN(CCCCc1nc3ccccc3o1)CC2 [Compound 10, 8-(4-(benzo[d]oxazol-2-yl)butyl)-1-phenyl-1,3,8-triazaspiro[4.5]decan-4-one]",MTA,MTA,without significant affinity,MTA,–
"O=C1NCN(c2ccccc2)C12CCN(CCCCc1c[nH]c3ccccc13)CC2 [Compound 11, 8-(4-(1H-indol-3-yl)butyl)-1-phenyl-1,3,8-triazaspiro[4.5]decan-4-one]",MTA,–,high affinity,–,5-HT2CR binding affinity (in words) (5-HT2CR): no significant affinity; H1R binding affinity (in words) (H1R): moderate binding
"O=C(CCCCN1CCN(C(c2ccc(F)cc2)c2ccc(F)cc2)CC1)c1nc2ccccc2s1 [Compound 17, 1-(benzo[d]thiazol-2-yl)-5-(4-(bis(4-fluorophenyl)methyl)piperazin-1-yl)pentan-1-one dihydrochloride]",–,–,–,–,pKi ± SE 5-HT7 (5-HT7R): 562.0/ 6.3±0.1
"Cl.O=C(CCCCN1C2CCC1CC(O)(c1ccc(Cl)cc1)C2)c1nc2ccccc2s1 (stereo not drawn) [Compound 22, 1-(Benzo[d]thiazol-2-yl)-5-(3-(4-chlorophenyl)-3-hydroxy-8-azabicyclo[3.2.1]octan-8-yl)-pentan-1-one hydrochloride]",MTA,–,–,MTA,Ki 5-HT1A (5-HT1AR): MTA
